Measured values: patent publication US20210254056A1, “IDENTIFICATION AND TARGETED MODULATION OF GENE SIGNALING NETWORKS” (CAMP4 THERAPEUTICS CORPORATION, priority 2017, published 2021)
Where two headings read alike, the source gives them in different places.

Tested on: hepatocytes
Test: RNA-seq of hepatocytes treated with Phase III failure compounds
Settings: for significant modulation of expression of disease genes: q≤0.05, genes in the value or listed in the block; for B2M expression, RNA-seq result: gene B2M; for B9D2 expression, RNA-seq result: gene B9D2; for BAAT expression, RNA-seq result: gene BAAT; for BBOX1 expression, RNA-seq result: gene BBOX1; for BBS10 expression, RNA-seq result: gene BBS10; for BCHE expression, RNA-seq result: gene BCHE; for BCKDHB expression, RNA-seq result: gene BCKDHB; for BCKDK expression, RNA-seq result: gene BCKDK; for BCO1 expression, RNA-seq result: gene BCO1; for BCR expression, RNA-seq result: gene BCR; for BLNK expression, RNA-seq result: gene BLNK; for BLOC1S3 expression, RNA-seq result: gene BLOC1S3; for BMPR1A expression, RNA-seq result: gene BMPR1A; for BRAF expression, RNA-seq result: gene BRAF; for BSCL2 expression, RNA-seq result: gene BSCL2; for BTD expression, RNA-seq result: gene BTD; for C4A expression, RNA-seq result: gene C4A; for C9 expression, RNA-seq result: gene C9; for C10orf10 expression, RNA-seq result: gene C10orf10; for C10orf11 expression, RNA-seq result: gene C10orf11; for C15orf41 expression, RNA-seq result: gene C15orf41; for CA2 expression, RNA-seq result: gene CA2; for CA5A expression, RNA-seq result: gene CA5A; for CA12 expression, RNA-seq result: gene CA12; for CAV1 expression, RNA-seq result: gene CAV1; for CCND1 expression, RNA-seq result: gene CCND1; for CD46 expression, RNA-seq result: gene CD46; for CD81 expression, RNA-seq result: gene CD81; for CD320 expression, RNA-seq result: gene CD320; for CDAN1 expression, RNA-seq result: gene CDAN1; for CDH1 expression, RNA-seq result: gene CDH1; for CEP19 expression, RNA-seq result: gene CEP19; for CEP83 expression, RNA-seq result: gene CEP83; for CEP164 expression, RNA-seq result: gene CEP164; for CEP290 expression, RNA-seq result: gene CEP290; for CFB expression, RNA-seq result: gene CFB; for CFHR2 expression, RNA-seq result: gene CFHR2; for CHRM3 expression, RNA-seq result: gene CHRM3; for CIDEC expression, RNA-seq result: gene CIDEC; for CLDN1 expression, RNA-seq result: gene CLDN1; for COG1 expression, RNA-seq result: gene COG1; for significant changes in gene expression: RNA-seq of Table 36, FPKM≥0.5, log 2(fold-change)≥1, q-value≤0.05; for significant modulation of expression of any of the genes analyzed: p≤0.05
Description: RNA-seq was performed to determine the effects of the compounds on hepatocytes.
Significance was determined by the criteria of FPKM≥0.5, a log 2(fold-change)≥1, and a […].

[1] = RNA-seq, Phase III failure compounds, hepatocytes, significance: FPKM≥0.5, log 2(fold-change)≥1, q-value≥0.05 (so in the source)

CC(C)[C@H](O)C(=O)N[C@@H](C)C(=O)N[C@@H]1C(=O)N(C)CCc2ccccc21 [Semagacestat]
Number (#) of genes having significantly changed expression [1]: 9
significant modulation of expression of disease genes (RNA-seq, hepatocytes): significantly (q≤0.05) modulate expression of CYP3A4
B2M expression, RNA-seq result (hepatocytes): −0.06
B9D2 expression, RNA-seq result (hepatocytes): 0.10
BAAT expression, RNA-seq result (hepatocytes): 0.02
BBOX1 expression, RNA-seq result (hepatocytes): −0.39
BBS10 expression, RNA-seq result (hepatocytes): −0.12
BCHE expression, RNA-seq result (hepatocytes): −0.07
BCKDHB expression, RNA-seq result (hepatocytes): 0.07
BCKDK expression, RNA-seq result (hepatocytes): 0.00
BCO1 expression, RNA-seq result (hepatocytes): −0.09
BCR expression, RNA-seq result (hepatocytes): −0.04
BLNK expression, RNA-seq result (hepatocytes): −0.03
BLOC1S3 expression, RNA-seq result (hepatocytes): −0.02
BMPR1A expression, RNA-seq result (hepatocytes): 0.01
BRAF expression, RNA-seq result (hepatocytes): 0.30
BSCL2 expression, RNA-seq result (hepatocytes): 0.05
BTD expression, RNA-seq result (hepatocytes): −0.02
C4A expression, RNA-seq result (hepatocytes): 0.16
C9 expression, RNA-seq result (hepatocytes): −0.11
C10orf10 expression, RNA-seq result (hepatocytes): 0.01
C10orf11 expression, RNA-seq result (hepatocytes): −0.27
C15orf41 expression, RNA-seq result (hepatocytes): −0.28
CA2 expression, RNA-seq result (hepatocytes): 0.59
CA5A expression, RNA-seq result (hepatocytes): −0.22
CA12 expression, RNA-seq result (hepatocytes): 0.80
CAV1 expression, RNA-seq result (hepatocytes): −0.21
CCND1 expression, RNA-seq result (hepatocytes): −0.14
CD46 expression, RNA-seq result (hepatocytes): −0.05
CD81 expression, RNA-seq result (hepatocytes): −0.02
CD320 expression, RNA-seq result (hepatocytes): −0.04
CDAN1 expression, RNA-seq result (hepatocytes): −0.07
CDH1 expression, RNA-seq result (hepatocytes): 0.01
CEP19 expression, RNA-seq result (hepatocytes): −0.22
CEP83 expression, RNA-seq result (hepatocytes): −0.04
CEP164 expression, RNA-seq result (hepatocytes): −0.01
CEP290 expression, RNA-seq result (hepatocytes): 0.06
CFB expression, RNA-seq result (hepatocytes): −0.07
CFHR2 expression, RNA-seq result (hepatocytes): 0.01
CHRM3 expression, RNA-seq result (hepatocytes): 0.08
CIDEC expression, RNA-seq result (hepatocytes): 0.28
CLDN1 expression, RNA-seq result (hepatocytes): −0.05
COG1 expression, RNA-seq result (hepatocytes): 0.17

Cn1cc(C2=C(c3cn(C4CCN(Cc5ccccn5)CC4)c4ccccc34)C(=O)NC2=O)c2ccccc21 [Enzstaurin]
Number (#) of genes having significantly changed expression: 971

COc1nc(N)nc2c1ncn2[C@@H]1O[C@H](COP(=O)(N[C@@H](C)C(=O)OCC(C)(C)C)Oc2cccc3ccccc23)[C@@H](O)[C@@]1(C)O (some centres unmarked) [bms-986094]
Number (#) of genes having significantly changed expression: 2079

CNC1(C)[C@H]2CCC(C2)C1(C)C.Cl (stereo partly drawn) [S-(+)-MecaMylaMine Hydrochloride]
significant changes in gene expression: not observed to cause any significant changes in gene expression
significant modulation of expression of any of the genes analyzed (RNA-seq, hepatocytes): not observed to significantly modulate expression

Cn1c(COP(=O)(NCCBr)NCCBr)cnc1[N+](=O)[O-] [TH-302 (Evofosfamide), Evofosfamide]
Number (#) of genes having significantly changed expression: 28
significant modulation of expression of disease genes (RNA-seq, hepatocytes): significantly (q≤0.05) modulate expression of the following genes: FAM111B, FGFR2, PKHD1, and RMRP
B2M expression, RNA-seq result (hepatocytes): 0.16
B9D2 expression, RNA-seq result (hepatocytes): −0.2
BAAT expression, RNA-seq result (hepatocytes): 0.12
BBOX1 expression, RNA-seq result (hepatocytes): 0.35
BBS10 expression, RNA-seq result (hepatocytes): 0.24
BCHE expression, RNA-seq result (hepatocytes): −0.07
BCKDHB expression, RNA-seq result (hepatocytes): −0.17
BCKDK expression, RNA-seq result (hepatocytes): 0.04
BCO1 expression, RNA-seq result (hepatocytes): −0.28
BCR expression, RNA-seq result (hepatocytes): −0.01
BLNK expression, RNA-seq result (hepatocytes): −0.2
BLOC1S3 expression, RNA-seq result (hepatocytes): 0.04
BMPR1A expression, RNA-seq result (hepatocytes): −0.05
BRAF expression, RNA-seq result (hepatocytes): −0.01
BSCL2 expression, RNA-seq result (hepatocytes): −0.03
BTD expression, RNA-seq result (hepatocytes): −0.16
C4A expression, RNA-seq result (hepatocytes): −0.36
C9 expression, RNA-seq result (hepatocytes): 0.16
C10orf10 expression, RNA-seq result (hepatocytes): −0.2
C10orf11 expression, RNA-seq result (hepatocytes): −0.71
C15orf41 expression, RNA-seq result (hepatocytes): 0.08
CA2 expression, RNA-seq result (hepatocytes): 0.11
CA5A expression, RNA-seq result (hepatocytes): −0.1
CA12 expression, RNA-seq result (hepatocytes): 0.32
CAV1 expression, RNA-seq result (hepatocytes): 0.13
CCND1 expression, RNA-seq result (hepatocytes): 0.16
CD46 expression, RNA-seq result (hepatocytes): 0.08
CD81 expression, RNA-seq result (hepatocytes): 0.09
CD320 expression, RNA-seq result (hepatocytes): 0.17
CDAN1 expression, RNA-seq result (hepatocytes): 0.11
CDH1 expression, RNA-seq result (hepatocytes): −0.56
CEP19 expression, RNA-seq result (hepatocytes): −0.02
CEP83 expression, RNA-seq result (hepatocytes): −0.06
CEP164 expression, RNA-seq result (hepatocytes): −0.03
CEP290 expression, RNA-seq result (hepatocytes): 0.16
CFB expression, RNA-seq result (hepatocytes): 0.01
CFHR2 expression, RNA-seq result (hepatocytes): 0.13
CHRM3 expression, RNA-seq result (hepatocytes): −0.58
CIDEC expression, RNA-seq result (hepatocytes): −0.06
CLDN1 expression, RNA-seq result (hepatocytes): −0.05
COG1 expression, RNA-seq result (hepatocytes): 0.12

Cc1cc(C)c2c(c1)[C@@H](N(Cc1cc(C(F)(F)F)cc(C(F)(F)F)c1)c1nnn(C)n1)CCCN2C[C@H]1CC[C@H](C(=O)O)CC1 [Evacetrapib]
significant changes in gene expression: not observed to cause any significant changes in gene expression
significant modulation of expression of any of the genes analyzed (RNA-seq, hepatocytes): not observed to significantly modulate expression

CCC(CC)[C@H](NC(C)=O)[C@@H]1[C@H](O)[C@@H](C(=O)O)C[C@H]1N=C(N)N [Peramivir]
Number (#) of genes having significantly changed expression [1]: 23

COC[C@@H](c1ccc(C(F)(F)F)cc1)N1CCN(C2(C)CCN(C(=O)c3c(C)ncnc3C)CC2)C[C@@H]1C [Vicriviroc (maleate), Vicriviroc]
significant changes in gene expression: not observed to cause any significant changes in gene expression
significant modulation of expression of any of the genes analyzed (RNA-seq, hepatocytes): not observed to significantly modulate expression
